The source of these data is US12391671B2, “Allosteric EGFR inhibitors and methods of use thereof” (Dana-Farber Cancer Institute, Inc., priority 2019, dated 2025).

Counter-ions that a name gives are not always drawn. Like-named read-outs stand apart in the source and are kept apart here.

The target of one assay is EGFR L858R/T790M (Homo sapiens (Human), UniProt P00533, L858R/T790M). Description: HTRF-based EGFR biochemical assay (L858R/T790M). The note with it: 100 μM ATP, enzyme 0.02 nM. The method in brief:
(§1)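 Mutant EGFR (L858R 0.1 nM, L858R/T790M 0.02 nM) preincubated 30 min with compounds at room temperature in HEPES pH 7.0 buffer with Mg2+/Mn2+, then reacted 20 min with 1 μM biotinylated tyrosine kinase peptide and 100 μM ATP. Phosphorylation read by HTRF (Eu-cryptate anti-phosphotyrosine/streptavidin-XL665, 665/620 nm) after EDTA quench.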
Background: TR-FRET usually uses a lanthanide donor and a delayed reading to cut background.

In another assay the target is EGFR L858R (Homo sapiens (Human), UniProt P00533, L858R). Description: HTRF-based EGFR biochemical assay (L858R). The conditions noted are these: 100 μM ATP, enzyme 0.1 nM. The method in brief:
as §1

The test system of assay [1] is EGFR mutant L858R/T790M Ba/F3 cells. Description: Ba/F3 cell proliferation model (Cell Titer Glo), EGFR L858R/T790M. The class given is cell-based, murine. The note with it: 72 hours. The text has this:
Example 26: Ba/F3 Cell Proliferation Models
The EGFR mutant L858R and L858R/T790M Ba/F3 cells have been previously described (Zhou, W., et al. Nature 462, 2009, 1070-1074). All cell lines were maintained in RPM 1640 (Cellgro; Mediatech Inc., Herndon. CA) supplemented with 10% FBS, 100 units/mL penicillin, 100 units/mL streptomycin. The EGFR I941R mutation was introduced via site directed mutagenesis using the Quick Change Site-Directed Mutagenesis kit (Stratagene; La Jolla, CA) according to the manufacturer's instructions. All constructs were confirmed by DNA sequencing. The constructs were shuttled into the retroviral vector JP1540 using the Cre-recombination system (Agilent Technologies, Santa Clara, CA). Ba/F3 cells were then infected with retrovirus per standard protocols, as described previously (Zhou, et al, Nature 2009). Stable clones were obtained by selection in puromycin (2 μg/ml).
Growth and inhibition of growth was assessed by the Cell Titer Glo® assay (Promega, Madison, WI) and was performed according to the manufacturer's instructions. The Cell Titer Glo® assay is a luminescence-based method used to determine the number of viable cells based on quantitation of the ATP present, which is directly proportional to the amount of metabolically active cells present. Ba/F3 cells of different EGFR genotypes were exposed to compounds as a single agent or in combination with 1 μg/mL cetuximab for 72 hours and the number of cells used per experiment was determined empirically as has been previously established (Zhou, et al., Nature 2009). All experimental points were set up in triplicates in 384-well plates and all experiments were repeated at least three times. […] The curves were fitted using a non-linear regression model with a sigmoidal dose response.

Setting [2] is: Mus musculus, BaF3, single agent, read-out: Cell IC50 BaF3 EGFR L858R/T790M.
The mark [3] stands for this setting: in combination with 1 μg/mL cetuximab, read-out: Cell IC50 BaF3 EGFR L858R/T790M (+cetux.).

EGFR L858R/T790M, sequence (P00533 25-1210 T790M/L858R): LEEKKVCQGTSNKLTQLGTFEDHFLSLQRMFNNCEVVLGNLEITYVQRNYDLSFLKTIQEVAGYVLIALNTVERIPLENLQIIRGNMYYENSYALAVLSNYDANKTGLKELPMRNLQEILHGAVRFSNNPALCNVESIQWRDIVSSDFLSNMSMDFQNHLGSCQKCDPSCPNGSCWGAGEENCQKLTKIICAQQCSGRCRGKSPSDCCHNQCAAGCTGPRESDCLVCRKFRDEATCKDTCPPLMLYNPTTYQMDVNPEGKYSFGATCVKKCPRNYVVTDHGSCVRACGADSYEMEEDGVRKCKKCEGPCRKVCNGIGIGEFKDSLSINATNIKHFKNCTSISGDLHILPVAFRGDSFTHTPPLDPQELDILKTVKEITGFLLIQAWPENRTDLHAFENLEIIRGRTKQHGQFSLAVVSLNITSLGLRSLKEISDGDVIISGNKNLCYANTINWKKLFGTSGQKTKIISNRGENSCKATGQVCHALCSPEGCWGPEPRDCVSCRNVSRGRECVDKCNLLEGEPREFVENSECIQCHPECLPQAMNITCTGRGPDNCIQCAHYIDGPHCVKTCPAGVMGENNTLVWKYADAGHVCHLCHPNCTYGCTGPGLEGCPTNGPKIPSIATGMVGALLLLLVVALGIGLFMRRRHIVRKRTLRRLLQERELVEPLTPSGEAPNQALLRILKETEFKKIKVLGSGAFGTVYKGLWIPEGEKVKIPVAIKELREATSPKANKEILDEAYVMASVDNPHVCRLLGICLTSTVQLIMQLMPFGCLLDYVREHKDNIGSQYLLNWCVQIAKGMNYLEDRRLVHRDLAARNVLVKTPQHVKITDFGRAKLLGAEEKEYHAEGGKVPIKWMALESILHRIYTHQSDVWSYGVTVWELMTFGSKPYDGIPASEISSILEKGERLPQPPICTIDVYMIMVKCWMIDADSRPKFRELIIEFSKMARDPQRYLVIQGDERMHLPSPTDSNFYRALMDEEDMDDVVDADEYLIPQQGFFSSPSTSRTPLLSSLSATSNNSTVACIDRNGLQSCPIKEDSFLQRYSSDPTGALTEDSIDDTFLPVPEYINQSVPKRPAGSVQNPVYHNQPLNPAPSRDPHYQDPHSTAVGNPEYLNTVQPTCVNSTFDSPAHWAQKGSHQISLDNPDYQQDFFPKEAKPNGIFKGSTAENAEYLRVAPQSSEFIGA
EGFR L858R, sequence (P00533 25-1210 L858R): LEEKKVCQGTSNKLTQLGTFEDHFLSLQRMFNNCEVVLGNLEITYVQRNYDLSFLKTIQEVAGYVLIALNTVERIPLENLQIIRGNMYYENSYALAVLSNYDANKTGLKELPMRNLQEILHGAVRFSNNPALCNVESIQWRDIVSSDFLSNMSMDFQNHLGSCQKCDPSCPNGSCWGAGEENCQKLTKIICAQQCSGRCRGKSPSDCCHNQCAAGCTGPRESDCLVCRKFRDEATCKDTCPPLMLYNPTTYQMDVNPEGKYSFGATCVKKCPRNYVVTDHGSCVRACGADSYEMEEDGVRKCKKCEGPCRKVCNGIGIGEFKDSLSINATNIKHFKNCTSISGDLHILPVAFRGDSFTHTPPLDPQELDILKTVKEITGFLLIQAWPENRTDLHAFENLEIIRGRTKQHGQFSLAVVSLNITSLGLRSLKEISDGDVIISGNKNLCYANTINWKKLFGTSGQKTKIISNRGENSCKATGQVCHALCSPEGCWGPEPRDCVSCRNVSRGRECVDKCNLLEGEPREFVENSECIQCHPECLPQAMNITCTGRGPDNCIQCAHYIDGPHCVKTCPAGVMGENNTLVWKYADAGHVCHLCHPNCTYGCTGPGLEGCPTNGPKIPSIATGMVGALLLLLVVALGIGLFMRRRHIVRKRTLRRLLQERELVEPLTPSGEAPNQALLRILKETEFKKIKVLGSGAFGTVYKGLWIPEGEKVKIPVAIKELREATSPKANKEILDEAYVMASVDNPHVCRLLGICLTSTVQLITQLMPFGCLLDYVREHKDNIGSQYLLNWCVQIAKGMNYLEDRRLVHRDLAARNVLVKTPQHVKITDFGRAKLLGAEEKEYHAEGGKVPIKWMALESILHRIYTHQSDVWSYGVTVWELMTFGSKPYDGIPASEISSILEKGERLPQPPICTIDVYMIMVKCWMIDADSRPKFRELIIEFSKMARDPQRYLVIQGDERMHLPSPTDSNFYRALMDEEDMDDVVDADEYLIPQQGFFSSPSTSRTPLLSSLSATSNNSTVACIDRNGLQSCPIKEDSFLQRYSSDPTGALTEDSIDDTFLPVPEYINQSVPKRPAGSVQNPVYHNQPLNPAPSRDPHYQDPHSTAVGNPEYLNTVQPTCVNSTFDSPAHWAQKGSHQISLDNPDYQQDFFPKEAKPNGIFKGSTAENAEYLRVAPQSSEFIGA

Regarding `CN1CCC(C#Cc2ccc3c(c2)C(=O)N(C(c2nc4ccccc4[nH]2)c2cc(F)ccc2O)C3)CC1` (stereo not drawn) [Compound 011, 2-[1H-benzimidazol-2-yl-(5-fluoro-2-hydroxy-phenyl)methyl]-6-[2-(1-methyl-4-piperidyl)-ethynyl]isoindolin-1-one; hydrochloride], the IC50 on EGFR L858R/T790M was found to be 10 nM; at EGFR L858R, 15 nM; in assay [1] (setting [2]), 1920 nM; in assay [1] (setting [3]), 10 nM.
In the case of `Nc1ccc(C#Cc2ccc3c(c2)C(=O)N(C(c2nc4ccccc4[nH]2)c2cc(F)ccc2O)C3)cn1` (stereo not drawn) [Compound 012, 6-[2-(6-Amino-3-pyridyl)ethynyl]-2-[1H-benzimidazol-2-yl-(5-fluoro-2-hydroxy-phenyl)methyl]isoindolin-1-one], the IC50 at EGFR L858R/T790M was determined as 6 nM; on EGFR L858R it was 48 nM; in assay [1] (setting [2]), 620 nM; in assay [1] (setting [3]), 10 nM.
Turning to `O=C1c2cc(C#CCN3CCS(=O)(=O)CC3)ccc2CN1C(c1nc2ccccc2[nH]1)c1cc(F)ccc1O` (stereo not drawn) [Compound 013, 2-[1H-benzimidazol-2-yl-(5-fluoro-2-hydroxy-phenyl)methyl]-6-[3-(1,1-dioxo-1,4-thiazinan-4-yl)prop-1-ynyl]isoindolin-1-one; hydrochloride], the IC50 against EGFR L858R/T790M was 33 nM; at EGFR L858R it was 22 nM; in assay [1] (setting [2]) it was above 10000 nM; in assay [1] (setting [3]), 260 nM.
Take `CN1CCC(c2ccc(-c3ccc4c(c3)C(=O)N(C(c3nc5cnccc5[nH]3)c3cc(F)ccc3O)C4)cc2)CC1` (stereo not drawn) [Compound 015, 2-[(5-Fluoro-2-hydroxy-phenyl)-(1H-imidazo[4,5-c]pyridin-2-yl)methyl]-6-[4-(1-methyl-4-piperidyl)phenyl]isoindolin-1-one;hydrochloride]: the IC50 at EGFR L858R/T790M stood at 2 nM; on EGFR L858R, 15 nM; in assay [1] (setting [2]), 1100 nM; in assay [1] (setting [3]) it was 20 nM.
The like results for `CN1CCC(F)(c2ccc(-c3ccc4c(c3)C(=O)N(C(c3nc5ccccc5[nH]3)c3cc(F)ccc3O)C4)cc2)CC1` (stereo not drawn) [Compound 016, 2-[1H-Benzimidazol-2-yl-(5-fluoro-2-hydroxy-phenyl)methyl]-6-[4-(4-fluoro-1-methyl-4-piperidyl)phenyl]isoindolin-1-one; hydrochloride] were, in that order, 0.7 nM, 3 nM, 590 nM and 10 nM.
The like results for `CN1CCC(c2ccc(-c3ccc4c(c3)C(=O)N(C(c3nc5ccccc5[nH]3)c3cc(F)ccc3O)C4)cc2F)CC1` (stereo not drawn) [Compound 017, 2-[1H-Benzimidazol-2-yl-(5-fluoro-2-hydroxy-phenyl)methyl]-6-[3-fluoro-4-(1-methyl-4-piperidyl)phenyl]isoindolin-1-one; hydrochloride] were, in that order, 0.4 nM, 1 nM, 260 nM and 6 nM.
The like results for `CN1CCC(c2ccc(-c3ccc4c(c3)C(=O)N(C(c3nc5cncnc5[nH]3)c3cc(F)ccc3O)C4)cc2)CC1` (stereo not drawn) [Compound 018, 2-[(5-Fluoro-2-hydroxy-phenyl)-(9H-purin-8-yl)methyl]-6-[4-(1-methyl-4-piperidyl)phenyl]isoindoiin-1-one; hydrochloride] were, in that order, 5 nM, 9 nM, 3490 nM and 20 nM.
In the case of `CN1CCC(c2ccc(-c3ccc4c(c3)C(=O)N(C(c3nc5nccnc5[nH]3)c3cc(F)ccc3O)C4)cc2)CC1` (stereo not drawn) [Compound 019, 2-[(5-Fluoro-2-hydroxy-phenyl)-(1H-imidazo[4,5-b]pyrazin-2-yl)methyl]-6-[4-(1-methyl-4-piperidyl)phenyl]isoindolin-1-one; hydrochloride], the IC50 worked out at 1 nM against EGFR L858R/T790M, 4 nM at EGFR L858R, 1870 nM in assay [1] (setting [2]) and 10 nM in assay [1] (setting [3]).
The matching figures for `CN1CCC(c2ccc(-c3ccc4c(c3)C(=O)N(C(c3cccc(F)c3)c3nc5cccnc5[nH]3)C4)cc2)CC1` (stereo not drawn) [Compound 025]: 11 nM, 150 nM, 3050 nM and 180 nM.
The like results for `CN1CCC(c2ccc(-c3ccc4c(c3)C(=O)N(C(c3cccc(F)c3)c3nc5ccccc5[nH]3)C4)cc2)CC1` (stereo not drawn) [Compound 026, 2-[1H-Benzimidazol-2-yl-(3-fluorophenyl)methyl]-6-[4-(1-methyl-4-piperidyl)phenyl]isoindolin-1-one] were, in that order, 7 nM, 26 nM, 2280 nM and 80 nM.
The matching figures for `CN1CCC(c2ccc(-c3ccc4c(n3)C(=O)N(C(c3nc5ccccc5[nH]3)c3cc(F)ccc3O)C4)cc2)CC1` (stereo not drawn) [Compound 028, 6-[1H-Benzimidazol-2-yl-(5-fluoro-2-hydroxy-phenyl)methyl]-2-[4-(1-methyl-4-piperidyl)phenyl]-5H-pyrrolo[3,4-b]pyridin-7-one]: 0.3 nM, 2 nM, 1360 nM and 30 nM.
Consider `CN1CCC(c2ccc(-c3ccc4c(c3)C(=O)N(C(c3nc5ccccc5[nH]3)c3cc(F)ccc3O)C4)c(F)c2)CC1` (stereo not drawn) [Compound 029, 2-[1H-benzimidazol-2-yl-(5-fluoro-2-hydroxy-phenyl)-methyl]-6-[2-fluoro-4-(1-methyl-4-piperidyl)phenyl]isoindolin-1-one; formic acid], for which the IC50 against EGFR L858R/T790M was found to be 0.6 nM; against EGFR L858R, 2 nM; in assay [1] (setting [2]), 760 nM; in assay [1] (setting [3]), 20 nM.
With `CN1CCC(c2ccc(-c3ccc4c(c3)C(=O)N(C(c3nc5cccnc5[nH]3)c3n[nH]c5c3CCC5)C4)cc2)CC1` (stereo not drawn) [Compound 031, 2-[1H-Imidazo[4,5-b]pyridin-2-yl(1,4,5,6-tetrahydrocyclopenta[c]pyrazol-3-yl)methyl]-6-[4-(1-methyl-4-piperidy)phenyl]isoindolin-1-one], the IC50 on EGFR L858R/T790M was 8 nM; against EGFR L858R it was 45 nM; in assay [1] (setting [2]), above 10000 nM; in assay [1] (setting [3]), 370 nM.
The matching figures for `CN1CCC(c2ccc(-c3ccc4c(c3)C(=O)N(C(c3nc5ccccc5[nH]3)c3n[nH]c5c3CCC5)C4)cc2)CC1` (stereo not drawn) [Compound 033, 2-[1H-Benzimidazol-2-yl(1,4,5,6-tetrahydrocyclopenta[c]pyrazol-3-yl)methyl]-6-[4-(1-methyl-4-piperidyl)phenyl]isoindolin-1-one]: 6 nM, 24 nM, 5230 nM and 340 nM.
The matching figures for `COc1ccc(F)cc1C(c1nc2ccccc2[nH]1)n1cc2ccc(-c3ccc(C4CCN(C)CC4)cc3)c(F)c2n1` (stereo not drawn) [Compound 035, 2-[1H-benzimidazol-2-yl-(5-fluoro-2-methoxy-phenyl)methyl]-7-fluoro-6-[4-(1-methyl-4-piperidyl)phenyl]indazole]: 42 nM, 507 nM, 3600 nM and 530 nM.
The matching figures for `[2H]C(c1nc2ccccc2[nH]1)(c1cc(F)ccc1O)N1Cc2ccc(-c3ccc(C4CCN(C)CC4)cc3)cc2C1=O` (stereo not drawn) [Compound 036, 2-((1H-benzo[d]imidazol-2-yl)(5-fluoro-2-hydroxyphenyl)methyl-d)-6-(4-(1-methylpiperidin-4-yl)phenyl)isoindolin-1-one]: 0.7 nM, 2.6 nM, 170 nM and 7 nM.
In the case of `[2H]C1([2H])c2ccc(-c3ccc(C4CCN(C)CC4)cc3)cc2C(=O)N1C([2H])(c1nc2ccccc2[nH]1)c1cc(F)ccc1O` (stereo not drawn) [Compound 039, 2-((1H-Benzo[d]imidazol-2-yl)(5-fluoro-2-hydroxyphenyl)methyl-d)-6-(4-(1-methylpiperidin-4-yl)phenyl)isoindolin-1-one-3,3-d2], the IC50 was 0.5 nM against EGFR L858R/T790M, 2.9 nM against EGFR L858R, 280 nM in assay [1] (setting [2]) and 14 nM in assay [1] (setting [3]).
In the case of `CN(C)CCOc1ccc(-c2ccc3c(c2)C(=O)N(C(c2nc4ccccc4[nH]2)c2cc(F)ccc2O)C3)cc1` (stereo not drawn) [Compound 040, 2-[1H-benzimidazol-2-yl-(5-fluoro-2-hydroxy-phenyl)methyl]-6-[4-[2-(dimethyl-amino)ethoxy]phenyl]isoindolin-1-one;hydrochloride], the IC50 is 2 nM at EGFR L858R/T790M, 7 nM against EGFR L858R, 1570 nM in assay [1] (setting [2]) and 10 nM in assay [1] (setting [3]).
